Counter-ions that a name gives are not always drawn.

The assay addresses T1, human PTH1 receptor (Homo sapiens, UniProt Q03431).
T1 sequence (Q03431 27-593): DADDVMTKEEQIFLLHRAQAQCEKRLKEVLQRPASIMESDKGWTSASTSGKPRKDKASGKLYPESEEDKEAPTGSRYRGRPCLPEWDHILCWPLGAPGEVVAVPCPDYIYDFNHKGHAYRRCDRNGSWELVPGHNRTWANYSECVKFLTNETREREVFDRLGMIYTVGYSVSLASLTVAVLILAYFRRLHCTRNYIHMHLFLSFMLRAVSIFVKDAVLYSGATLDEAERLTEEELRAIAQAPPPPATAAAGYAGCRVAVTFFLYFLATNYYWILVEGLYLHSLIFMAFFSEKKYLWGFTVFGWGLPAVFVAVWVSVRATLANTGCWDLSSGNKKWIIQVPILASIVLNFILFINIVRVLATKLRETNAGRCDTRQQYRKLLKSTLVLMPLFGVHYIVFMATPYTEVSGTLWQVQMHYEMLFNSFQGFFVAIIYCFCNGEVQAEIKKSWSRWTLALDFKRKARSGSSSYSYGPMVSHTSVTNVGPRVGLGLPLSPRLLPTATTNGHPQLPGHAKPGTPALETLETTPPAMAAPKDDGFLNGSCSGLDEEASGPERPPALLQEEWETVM
Briefly: In vitro cAMP signal activity in HKRK-B7 cells (LLC-PK1 cells overexpressing the human PTH1 receptor). In kind it is cell-based. The settings on record: HKRK-B7 cells; compound at 1×10^−3 M; cAMP produced as percentage of that produced by hPTH(1-34) at 100 nM.
As for `Cc1cc(C(=O)N2CCC(O)(CF)CC2)cc(C)c1/C=C/S(=O)(=O)N1CCC2(CC1)N=C(c1ccc(Cl)c(OC(C)(C)C(F)(F)F)c1)NC2=O` [Compound 1271, 2-[4-chloro-3-(2,2,2-trifluoro-1,1-dimethyl-ethoxy)-phenyl]-8-{(E)-2-[4-(4-fluoromethyl-4-hydroxy-piperidine-1-carbonyl)-2,6-dimethyl-phenyl]-ethenesulfonyl}-1,3,8-triaza-spiro[4.5]dec-1-en-4-one], the “cAMP production activity (%)” value was 92%. Regarding `[2H]C([2H])([2H])C([2H])([2H])Oc1cc(C2=NC3(CCN(S(=O)(=O)/C=C/c4c(C)cc(C(=O)N5CCC(O)(CF)CC5)cc4C)CC3)C(=O)N2)ccc1F` [Compound 1272, 2-(3-[1,1,2,2,2-^2H5]ethoxy-4-fluoro-phenyl)-8-{(E)-2-[4-(4-fluoromethyl-4-hydroxy-piperidine-1-carbonyl)-2,6-dimethyl-phenyl]-ethenesulfonyl}-1,3,8-triaza-spiro[4.5]dec-1-en-4-one], the “cAMP production activity (%)” value turned out to be 71%.

In the case of `Cc1cc(C(=O)N2CCC(O)(CF)CC2)cc(C)c1/C=C/S(=O)(=O)N1CCC2(CC1)N=C(c1ccc(OC(F)(F)F)c(OCCCC(F)(F)F)c1)NC2=O` [Compound 1273, 8-{(E)-2-[4-(4-fluoromethyl-4-hydroxy-piperidine-1-carbonyl)-2,6-dimethyl-phenyl]-ethenesulfonyl}-2-[3-(4,4,4-trifluoro-butoxy)-4-trifluoromethoxy-phenyl]-1,3,8-triaza-spiro[4.5]dec-1-en-4-one], the “cAMP production activity (%)” value is 81%. In the case of `Cc1cc(C(=O)N2CCC(O)(CF)CC2)cc(C)c1/C=C/S(=O)(=O)N1CCC2(CC1)N=C(c1ccc(C(F)(F)F)c(OCC(F)(F)C(F)F)c1)NC2=O` [Compound 1274, 8-{(E)-2-[4-(4-fluoromethyl-4-hydroxy-piperidine-1-carbonyl)-2,6-dimethyl-phenyl]-ethenesulfonyl}-2-[3-(2,2,3,3-tetrafluoro-propoxy)-4-trifluoromethyl-phenyl]-1,3,8-triaza-spiro[4.5]dec-1-en-4-one], the “cAMP production activity (%)” value is 81%. To `Cc1cc(C(=O)N2CCC(O)(CF)CC2)cc(C)c1CCS(=O)(=O)N1CCC2(CC1)N=C(c1ccc3c(c1)OC(F)(F)O3)NC2=O` [Compound 1275, 2-(2,2-difluoro-benzo[1,3]dioxol-5-yl)-8-{2-[4-(4-fluoromethyl-4-hydroxy-piperidine-1-carbonyl)-2,6-dimethyl-phenyl]-ethanesulfonyl}-1,3,8-triaza-spiro[4.5]dec-1-en-4-one] belongs 89%; to `Cc1cc(C(=O)N2CCC(O)(CF)CC2)cc(C)c1CCS(=O)(=O)N1CCC2(CC1)N=C(c1ccc(OC(F)(F)F)cc1)NC2=O` [Compound 1276, 8-{2-[4-(4-fluoromethyl-4-hydroxy-piperidine-1-carbonyl)-2,6-dimethyl-phenyl]-ethanesulfonyl}-2-(4-trifluoromethoxy-phenyl)-1,3,8-triaza-spiro[4.5]dec-1-en-4-one], 140%.

Turning to `Cc1cc(C2=NC3(CCN(S(=O)(=O)CCc4c(C)cc(C(=O)N5CCC(O)(CF)CC5)cc4C)CC3)C(=O)N2)ccc1C(F)(F)F` [Compound 1277, 8-{2-[4-(4-fluoromethyl-4-hydroxy-piperidine-1-carbonyl)-2,6-dimethyl-phenyl]-ethanesulfonyl}-2-(3-methyl-4-trifluoromethyl-phenyl)-1,3,8-triaza-spiro[4.5]dec-1-en-4-one], the “cAMP production activity (%)” value came to 95%. Regarding `Cc1cc(C(=O)N2CCC(O)(CF)CC2)cc(C)c1CCS(=O)(=O)N1CCC2(CC1)N=C(c1ccc(C(F)(F)F)c(Cl)c1)NC2=O` [Compound 1278, 2-(3-chloro-4-trifluoromethyl-phenyl)-8-{2-[4-(4-fluoromethyl-4-hydroxy-piperidine-1-carbonyl)-2,6-dimethyl-phenyl]-ethanesulfonyl}-1,3,8-triaza-spiro[4.5]dec-1-en-4-one], the “cAMP production activity (%)” value was 95%. Regarding `Cc1cc(C(=O)N2CCC(O)(CF)CC2)cc(C)c1CCS(=O)(=O)N1CCC2(CC1)N=C(c1ccc(C(F)(F)F)c(OCC(F)(F)C(F)F)c1)NC2=O` [Compound 1279, 8-{2-[4-(4-fluoromethyl-4-hydroxy-piperidine-1-carbonyl)-2,6-dimethyl-phenyl]-ethanesulfonyl}-2-[3-(2,2,3,3-tetrafluoro-propoxy)-4-trifluoromethyl-phenyl]-1,3,8-triaza-spiro[4.5]dec-1-en-4-one], the “cAMP production activity (%)” value was found to be 113%. `Cc1cc(C(=O)N2CCC(O)(CF)CC2)cc(C)c1/C=C/S(=O)(=O)N1CCC2(CC1)N=C(c1ccc3c(c1)OC(F)(F)O3)NC2=O` [Compound 1280, 2-(2,2-difluoro-benzo[1,3]dioxol-5-yl)-8-{(E)-2-[4-(4-fluoromethyl-4-hydroxy-piperidine-1-carbonyl)-2,6-dimethyl-phenyl]-ethenesulfonyl}-1,3,8-triaza-spiro[4.5]dec-1-en-4-one]: the “cAMP production activity (%)” value stood at 74%. To `Cc1cc(C(=O)N2CCC(O)(CF)CC2)cc(C)c1CCS(=O)(=O)N1CCC2(CC1)N=C(c1ccc3c(c1)OC(F)(F)C(F)(F)O3)NC2=O` [Compound 1281, 8-{2-[4-(4-fluoromethyl-4-hydroxy-piperidine-1-carbonyl)-2,6-dimethyl-phenyl]-ethanesulfonyl}-2-(2,2,3,3-tetrafluoro-2,3-dihydro-benzo[1,4]dioxin-6-yl)-1,3,8-triaza-spiro[4.5]dec-1-en-4-one] belongs 95%; to `Cc1cc(C(=O)N2CCC(O)CC2)cc(C)c1/C=C/S(=O)(=O)N1CCC2(CC1)N=C(c1cccc(CC#N)c1)NC2=O` [Compound 1282, [3-(8-{(E)-2-[4-(4-Hydroxy-piperidine-1-carbonyl)-2,6-dimethyl-phenyl]-ethenesulfonyl}-4-oxo-1,3,8-triaza-spiro[4.5]dec-1-en-2-yl)-phenyl]-acetonitrile], 63%; to `Cc1cc(OC2CCNCC2)ccc1/C=C/S(=O)(=O)N1CCC2(CC1)N=C(c1cccc(OC(F)(F)F)c1)NC2=O` [Compound 1283, 8-{(E)-2-[2-Methyl-4-(piperidin-4-yloxy)-phenyl]-ethenesulfonyl}-2-(3-trifluoromethoxy-phenyl)-1,3,8-triaza-spiro[4.5]dec-1-en-4-one trifluoroacetate], 18%.

Turning to `Cc1cc(CN)ccc1CCS(=O)(=O)N1CCC2(CC1)N=C(C1CCC(CCC(F)(F)F)CC1)NC2=O.O=C(O)C(F)(F)F` (stereo not drawn) [Compound 1284, 8-[2-(4-aminomethyl-2-methyl-phenyl)-ethanesulfonyl]-2-[4-(3,3,3-trifluoro-propyl)-cyclohexyl]-1,3,8-triaza-spiro[4.5]dec-1-en-4-one], the “cAMP production activity (%)” value amounted to 2.5%. As to `Cc1cc(N2CCNCC2=O)ccc1/C=C/S(=O)(=O)N1CCC2(CC1)N=C(C1CCC(C)CC1)NC2=O` (stereo not drawn) [Compound 1285, 2-(4-methyl-cyclohexyl)-8-{(E)-2-[2-methyl-4-(2-oxo-piperazin-1-yl)-phenyl]-ethenesulfonyl}-1,3,8-triaza-spiro[4.5]dec-1-en-4-one], the “cAMP production activity (%)” value was 67%. To `CNc1cc(C)c(CCS(=O)(=O)N2CCC3(CC2)N=C(C2CCCN2)NC3=O)c(C)c1` (stereo not drawn) [Compound 1286, 8-[2-(2,6-Dimethyl-4-methylamino-phenyl)-ethanesulfonyl]-2-pyrrolidin-2-yl-1,3,8-triaza-spiro[4.5]dec-1-en-4-one dihydrochloride] belongs 35%; to `CNc1cc(C)c(CCS(=O)(=O)N2CCC3(CC2)N=C(C(C)(F)F)NC3=O)c(C)c1.Cl` [Compound 1287, 2-(1,1-difluoro-ethyl)-8-[2-(2,6-dimethyl-4-methylamino-phenyl)-ethanesulfonyl]-1,3,8-triaza-spiro[4.5]dec-1-en-4-one hydrochloride], 64%. For the molecule `Cl.[2H]C([2H])([2H])Nc1cc(C)c(/C=C/S(=O)(=O)N2CCC3(CC2)N=C(c2ccc(F)c(C(F)(F)F)c2)NC3=O)c(C)c1` [Compound 1288, 8-[(E)-2-(2,6-dimethyl-4-[1,1,1-^2H3]methylamino-phenyl)-ethenesulfonyl]-2-(4-fluoro-3-trifluoromethyl-phenyl)-1,3,8-triaza-spiro[4.5]dec-1-en-4-one hydrochloride], the “cAMP production activity (%)” value is given as 54%.

Consider `CNCc1cc(C)c(/C=C/S(=O)(=O)N2CCC3(CC2)N=C(C2CCC(C)CC2)NC3=O)c(C)c1` (stereo not drawn) [Compound 1289, 8-[(E)-2-(2,6-Dimethyl-4-methylaminomethyl-phenyl)-ethenesulfonyl]-2-(4-methyl-cyclohexyl)-1,3,8-triaza-spiro[4.5]dec-1-en-4-one], for which the “cAMP production activity (%)” value was determined as 17%. For `Cc1cc(CN)cc(C)c1/C=C/S(=O)(=O)N1CCC2(CC1)N=C(C1CCC(CCC(F)(F)F)CC1)NC2=O` (stereo not drawn) [Compound 1290, 8-[(E)-2-(4-aminomethyl-2,6-dimethyl-phenyl)-ethenesulfonyl]-2-[4-(3,3,3-trifluoro-propyl)-cyclohexyl]-1,3,8-triaza-spiro[4.5]dec-1-en-4-one], the “cAMP production activity (%)” value is listed as 6.3%.

Consider `Cc1cc(CN)cc(C)c1/C=C/S(=O)(=O)N1CCC2(CC1)N=C(C1CCC(C)CC1)NC2=O` (stereo not drawn) [Compound 1291, 8-[(E)-2-(4-aminomethyl-2,6-dimethyl-phenyl)-ethenesulfonyl]-2-(4-methyl-cyclohexyl)-1,3,8-triaza-spiro[4.5]dec-1-en-4-one], for which the “cAMP production activity (%)” value is recorded as 48%.
